Test results reported in patent US20060135587A1, “Method and compounds for promoting healing and reducing inflammation” (priority 2002, published 2006).

Columns and labels:
myocardial infarction = test: Clinical study in subacute phase of myocardial infarction (Example 24); type: in vivo, human
Protocol: The effect of Compound 2 therapy in patients suffering from the subacute phase of myocardial infarction (MI) was assessed. The patients were divided into two groups. There were no substantial differences between the groups in terms of age and basic features of necrotic foci. Each patient continued to receive the treatment which s/he had been given prior to commencement of the trial. Compound 2 was administered in addition to the previous treatment. The first group included 63 patients who received conventional therapy, i.e. nitrates, anticoagulants and/or hypotensive agents as appropriate, and the second group comprised 44 patients who were treated with Compound 2 at a dose of 600 mg per day from the 7th to the 28th day after diagnosis of myocardial infarction, in addition to receiving conventional treatment. The control group included 14 healthy men aged from 26 to 42. The average age of patients in the first group was 50.3 years, and in the second group, 49.5 years.
Clinical evidence from daily examinations of both groups and the results of electrocardiagraphic examination in 12 abductions were assessed over the entire observation period. A number of analyses were made on the 7th and 28th day of progress of MI, including clinical blood count, plasma bilirubin, sugar, creatinine, cholesterol, β3-lipoproteins, potassium and sodium, and urine analysis; the activity of the prothrombin complex and the time of re-calcification were also determined. Central haemodynamics were examined using the method of body integral rheography, whereby the stroke volume and cardiac indices were calculated. Indices of left ventricular contractility—terminal diastolic volume, ejection fraction, and the extent of systolic contraction of anteroposterior cavity dimensions (% ΔS)— were examined using the echography method using an Aloka SSD-119 apparatus (Japan). Central and intracardiac haemodynamics was investigated on the 1st, 7th; 14th, 21st and 28th days of the disease.

[1] = tested on: regeneration of liver after partial hepatectomy; test: Liver regeneration after partial hepatectomy in rats; type: in vivo; conditions: for Level of recovery: 7 days, hepatectomy alone = 100
Protocol: Partial hepatectomy was performed using the conventional method (Higgins and Anderson, 1931) by removing the left lateral and central lobes of the liver from 80 male white rats, weighing 180-200 g.
Compound 2, Compound 4, Compound 5 or Compound 6 was administered to the experimental groups intraperitoneally in equimolar doses of 0.1 mM/kg and 0.2 mM/kg. These optimal doses were determined in preliminary experiments. The control group received intraperitoneal injections of saline solution. The compounds were administered on the day after the operation and then one injection was given daily over the course of 7 days, since maximum growth of the liver mass in rats is observed in the first 7 days after partial hepatectomy (Solopaev, 1980).
The effectiveness of the compounds was compared to that of a combination of non-steroid anabolic regeneration stimulators which are used in the treatment of liver pathology, namely Riboxin and potassium orotate at a dose of 0.2 mM/kg each (Rychnev and Frolov, 1984).
For quantitative evaluation of the regeneration process in the liver the coefficient of regeneration completion as determined by the formula below was used: [formula] where
Stimulation of the regeneration of tissue after hepatectomy in response to different medicinal preparations is associated with an increase in the synthesis of nucleic acids, as indicated by the increase in the content of RNA and DNA in the regenerated tissue. Quantitative analysis of DNA and RNA was performed by centrifugation. […] The enzymic component of anti-oxidant protection was also assessed on the basis of the activity of catalase and superoxidedismutase (SOD).
5 ml of […] of HCIO4 solution were added to the sample (100 mg). In order to ensure complete sedimentation of the acid-insoluble fraction, the beakers were put in ice for 15 minutes. Then they were centrifuged for 10 minutes at 5000 revolutions per minute. The sediment was washed twice with 0.2 M HCIO4. After the final centrifugation, the walls of the beaker were carefully dried with gauze and filter paper. The sediment was ground down with a glass pestle, suspended in 1 ml of water and then 1 ml of 0.6 M KON solution was added at room temperature. Hydrolysis was performed over the course of 1 hour at 37° C., then the beakers were put in ice to stop the hydrolysis process. 4 ml of the 0.6 M solution were added to each beaker and the beakers were left in ice for another 15 minutes, then centrifuged for 15 minutes at 5000 revolutions per minute. The supernatant was used to determine the RNA by UV absorption at 260 nm and 290 nm compared to the control sample containing 0.4M of HCIO4). The amount of RNA in μg per 1 ml of the supernatant was calculated using the following formula: [formula] where C=is the RNA concentration (μg/ml)
DNA analysis was carried out on the sediment remaining after the alkaline hydrolysis used to determine RNA. 0.5 M of HCIO4 (5 ml per sample) was poured into the dried beaker containing the sediment. Hydrolysis was performed in a boiling water bath for 20 minutes. The amount of DNA in μg per 1 ml of the hydrolysate was calculated using the following formula: [formula] where C=is the DNA concentration (μg/ml). Catalase Activity
Catalase activity was determined using the permanganate method. The optimal amount of the substrate (3 ml of 1% H2O2) and 1 ml of the enzyme were added to 10 ml of phosphate buffer, pH 7.8. After 10 minutes the reaction was stopped by adding 1.5 ml of H2SO4 (50%). The remaining hydrogen peroxide was filtered with 0.1M of KMnO4 solution. Catalase activity was calculated on the basis that 1 ml of 0.1M of KMnO4 solution corresponds to […] of H2O2.
SOD activity was determined using the dianisidine method, which is based on the fact that under ultraviolet irradiation Riboflavin (Rb) is converted to an excited (ionised) state and therefore becomes able to attack reduced dianisidine (DH2). […]

[2] = tested on: liver after partial hepatectomy; test: Morphological study of the liver after partial hepatectomy; type: in vivo, rats; conditions: one week after hepatectomy
Protocol: Morphological methods are highly informative in the assessment of repair processes. Histological tests of the liver after partial hepatectomy were performed using generally accepted methods. Microscopic sections were stained with hematoxylin and eosin using Van Gieson's methodology. Liver tests after partial hepatectomy were performed on 8 groups of animals, totalling 37 rats. All animals were examined one week after hepatectomy.

Q: For `CC[n+]1cn(C)c(C(=O)NC)c1C(=O)NC.O=S(=O)([O-])c1ccccc1` [Compound 2, 1-methyl-3-ethyl-4,5-bis(N-methylcarbamoyl)-imidazolium benzenesulfonate], which “left ventricular myocardial contractility” value (myocardial infarction; 600 mg per day combined with conventional therapy) is on record?
A: increased the rate and extent of regeneration of left ventricular myocardial contractility

Q: And the clinical side effects (myocardial infarction; 600 mg per day, 7th to 28th day of the disease)?
A: did not produce any clinical side effects

Q: What about the serum bilirubin (myocardial infarction; 600 mg per day, does not exceed the upper limit of standard values) of the same compound?
A: increase in unconjugated and hence total bilirubin in serum

Q: What about the “Catalase E activity” value ([1]; 0.1 mM/kg) of the same compound?
A: 18.0 ± 3.1 μgM/min/g tissue × 1000

Q: What about the “DNA content (in mg/g of tissue)” value ([1]; 0.1 mM/kg) of the same compound?
A: 4.2 ± 0.37 mg/g of tissue

Q: And the Protein content ([1]; 0.1 mM/kg)?
A: 86.4 ± 9.8 Mg/g tissue

Q: What about the “RNA content (mg/g of tissue)” value ([1]; 0.1 mM/kg) of the same compound?
A: 7.07 ± 0.18 mg/g of tissue

Q: What about the SOD activity ([1]; 0.1 mM/kg) of the same compound?
A: 78.9 ± 5.8 Units/g tissue

Q: What about the Level of recovery ([1]; 0.1 mM/kg intraperitoneally) of the same compound?
A: 150.5

Q: And the “DNA content higher than in animals undergoing hepatectomy alone” value ([1]; 0.1 mM/kg or 0.2 MM/kg)?
A: 15%

Q: And the “Catalase E activity” value ([1]; 0.2 mM/kg)?
A: 20.0 ± 1.92 μgM/min/g tissue × 1000

Q: And the “DNA content (in mg/g of tissue)” value ([1]; 0.2 mM/kg)?
A: 4.1 ± 0.13 mg/g of tissue

Q: What about the Protein content ([1]; 0.2 mM/kg) of the same compound?
A: 94.8 ± 8.4 Mg/g tissue

Q: And the “RNA content (mg/g of tissue)” value ([1]; 0.2 mM/kg)?
A: 6.96 ± 0.39 mg/g of tissue

Q: And the SOD activity ([1]; 0.2 mM/kg)?
A: 98.0 ± 4.6 Units/g tissue

Q: And the Level of recovery ([1]; 0.2 mM/kg intraperitoneally)?
A: 134.9

Q: And the “increase of the organ regeneration completeness ratio” value ([1]; 0.1 and 0.2 mM/kg)?
A: 34.9-50.5%

Q: What about the “histological findings in the liver” value ([2]; 0.1 MM/kg) of the same compound?
A: showed no undesirable effects

Q: What about the “histological findings in the liver” value ([2]; 0.2 MM/kg) of the same compound?
A: some of the animals demonstrated hepatocyte hypertrophy combined with subacute hepatitis
